According to patent US5534498A, “Trypsin inhibitors” (Corvas International, Inc., priority 1993, dated 1996):
Residues, ends and D or L forms follow the SMILES beside them. *: point of attachment. Boc = CC(C)(C)OC(=O)*

Columns and labels:
Assay type in all cases: biochemical
[1] = target: bovine and human pancreatic trypsin; assay: Potency: determination of inhibitor constant Ki against trypsin (S-2222 substrate, Dixon plot); details: 37° C., TBS pH 7.4, 15 min preincubation, read-out: Ki For Peptide Aldehydes Against Trypsin
Description: The potency and specificity of the compounds of the present invention are determined by in vitro assay methods well known in the art. […] Specifically, the inhibitor constant, Ki, of the compounds can be determined by the method of Dixon, Biochem. J. 55:170 (1953). The specificity is assessed by determination of the concentration, IC50, of compound required to give 50% inhibition of the enzymatic activity of the coagulation enzymes, kallikrein, factor XIa, factor VIIa, factor Xa, thrombin; the fibrinolysis enzymes, plasmin, tissue plasminogen activator (tPA), and urokinase (UK), and the anticoagulation enzyme, protein C. Specificity is found when the concentration of compound giving 50% inhibition of trypsin is low relative to the concentration required to give like inhibition of the other enzymes.
Enzyme activity was determined using as substrate S-2222 [N-benzoyl-L-isoleucyl-L-glutamyl-glycyl-L-arginine-p-nitroanilide hydrochloride where glutamyl side chain is 50% carboxylic acid and 50% methyl ester], purchased from Kabi Diagnostica. The substrate was made up in deionized water prior to use.
A 96-well microtiter plate was prepared for use in the assay by incubating each well with 300 μL of 1% bovine serum albumin (in deionized water) for 30 minutes at 37° C., and washing three times with deionized water.
To each well was added 50 μL TBS (0.1M Tris, 0.14M NaCl, pH 7.4), 50 μL 2.5 nM trypsin and 50 μL peptide aldehyde in TBS or TBS alone. After incubating for 15 minutes at 37° C., 50 μL of S-2222 (at 37° C.) at a specified concentration was added to each well. After mixing, the rate of substramte turnover at 37° C. was measured for 30 minutes at 405 nm (generation of p-nitroaniline). The initial S-2222 concentrations in the assay mixture were 0.45, 0.23, 0.11, 0.056, and 0.028 mM.
Ki was determined graphically using a Dixon plot, as described in Dixon, Biochem. J. 55:170 (1953).

[2] = target: T1, human kallekrein (Homo sapiens, UniProt P03952); assay: Kallikrein assay (S-2302 substrate); details: for IC50: 30 min preincubation, room temperature, tested 0.025-25 μM, Inact. = no inhibition at highest concentration; for Calculated % Selectivity Kallikrein: [IC50 for Trypsin/IC50 for other enzyme]×100, lower = more trypsin selective
T1 construct: 50 μL of 4 to 9 nM human kallekrein
T1 sequence (P03952 391-638 limits assumed): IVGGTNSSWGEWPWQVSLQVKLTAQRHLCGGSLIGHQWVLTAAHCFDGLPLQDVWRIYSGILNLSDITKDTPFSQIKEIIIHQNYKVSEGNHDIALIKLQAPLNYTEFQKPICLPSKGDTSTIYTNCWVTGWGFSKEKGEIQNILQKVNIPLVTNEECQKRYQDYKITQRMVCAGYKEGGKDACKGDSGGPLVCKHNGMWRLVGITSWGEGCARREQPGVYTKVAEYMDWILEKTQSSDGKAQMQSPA
T1 sequence (P03952 20-390 partner limits assumed): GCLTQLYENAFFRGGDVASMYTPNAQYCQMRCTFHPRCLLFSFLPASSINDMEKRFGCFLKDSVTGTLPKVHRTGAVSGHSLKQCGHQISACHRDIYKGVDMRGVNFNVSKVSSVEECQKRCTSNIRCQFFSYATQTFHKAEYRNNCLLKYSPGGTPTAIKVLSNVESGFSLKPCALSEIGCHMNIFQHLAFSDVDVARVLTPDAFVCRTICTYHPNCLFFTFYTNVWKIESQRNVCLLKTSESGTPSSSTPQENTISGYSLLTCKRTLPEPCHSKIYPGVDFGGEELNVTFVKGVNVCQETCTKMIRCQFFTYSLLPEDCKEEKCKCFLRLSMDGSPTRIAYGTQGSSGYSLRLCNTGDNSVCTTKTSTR
Description: (§1) The specificity of the peptide aldehydes (8 through 12) was determined in vitro by measurement of their IC50 against other enzymes involved in hemostasis. A specific concentration of enzyme and its substrate were challenged with varying concentrations of inhibitor. […] Specific assay procedures used are presented below.
(§2) 96-well microtiter plates were prepared for use in these assays by incubating each well with 300 μL 1% bovine serum albumin (in deionized water) for 30 minutes at 37° C., then washing three times with deionized water.
(§3) The substrate was made up in deionized water prior to use.

[3] = target: T2, human Factor XIa (Homo sapiens, UniProt P03951); assay: Factor XIa assay (S-2366 substrate); details: for IC50: 30 min preincubation, room temperature, tested 0.025-25 μM, Inact. = no inhibition at highest concentration; for Calculated % Selectivity XIa: [IC50 for Trypsin/IC50 for other enzyme]×100, lower = more trypsin selective
T2 construct: 50 μL of 5 nM human Factor XIa
T2 sequence (P03951 388-625 limits assumed): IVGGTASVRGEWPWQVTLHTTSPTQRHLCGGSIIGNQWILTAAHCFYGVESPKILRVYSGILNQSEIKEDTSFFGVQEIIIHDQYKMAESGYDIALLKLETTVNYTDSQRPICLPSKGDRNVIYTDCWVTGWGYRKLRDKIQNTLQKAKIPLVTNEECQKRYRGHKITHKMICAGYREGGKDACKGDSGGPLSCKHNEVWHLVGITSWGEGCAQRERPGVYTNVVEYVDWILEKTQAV
T2 sequence (P03951 19-387 partner limits assumed): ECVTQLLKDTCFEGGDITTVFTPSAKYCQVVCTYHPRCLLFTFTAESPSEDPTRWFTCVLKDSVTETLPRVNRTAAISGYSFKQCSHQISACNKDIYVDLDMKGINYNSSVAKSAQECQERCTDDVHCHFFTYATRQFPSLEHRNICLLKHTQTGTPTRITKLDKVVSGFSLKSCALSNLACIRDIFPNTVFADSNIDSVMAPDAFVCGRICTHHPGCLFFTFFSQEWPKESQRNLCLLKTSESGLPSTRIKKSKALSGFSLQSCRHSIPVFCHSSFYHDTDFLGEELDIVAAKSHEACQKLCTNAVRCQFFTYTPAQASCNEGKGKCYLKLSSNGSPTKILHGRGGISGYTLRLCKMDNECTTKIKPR
Description: as §1, §2, §3

[4] = target: T3, Factor VIIa:rTF complex (Homo sapiens, UniProt P08709); assay: Factor VIIa assay (S-2288 substrate); details: for Calculated % Selectivity VIIa: [IC50 for Trypsin/IC50 for other enzyme]×100, lower = more trypsin selective
T3 construct: 2.5 ml 400 nMhuman Factor VIIa
T3 sequence (P08709 213-466 limits assumed): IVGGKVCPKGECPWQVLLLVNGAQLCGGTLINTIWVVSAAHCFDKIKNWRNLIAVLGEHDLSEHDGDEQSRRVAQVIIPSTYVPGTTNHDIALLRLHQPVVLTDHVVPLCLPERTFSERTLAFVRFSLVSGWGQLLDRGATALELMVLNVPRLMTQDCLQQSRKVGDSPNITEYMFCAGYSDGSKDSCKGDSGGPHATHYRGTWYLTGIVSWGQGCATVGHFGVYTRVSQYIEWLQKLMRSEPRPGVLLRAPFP
T3 sequence (P08709 61-212 partner limits assumed): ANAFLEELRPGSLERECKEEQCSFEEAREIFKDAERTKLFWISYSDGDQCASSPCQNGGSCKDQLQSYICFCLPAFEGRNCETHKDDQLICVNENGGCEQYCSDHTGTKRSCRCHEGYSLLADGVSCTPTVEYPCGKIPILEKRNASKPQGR
T3 sequence (P13726 33-295 partner): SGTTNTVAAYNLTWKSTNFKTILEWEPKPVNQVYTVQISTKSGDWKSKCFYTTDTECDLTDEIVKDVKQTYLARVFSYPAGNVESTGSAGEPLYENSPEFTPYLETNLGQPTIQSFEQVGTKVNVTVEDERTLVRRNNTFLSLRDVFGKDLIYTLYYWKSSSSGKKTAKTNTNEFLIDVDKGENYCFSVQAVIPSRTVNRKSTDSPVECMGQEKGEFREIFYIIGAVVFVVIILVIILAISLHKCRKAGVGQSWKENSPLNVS
Description: (§4) The specificity of the peptide aldehydes (8 through 12) was determined in vitro by measurement of their IC50 against other enzymes involved in hemostasis. A specific concentration of enzyme and its substrate were challenged with varying concentrations of inhibitor. IC50 is that concentration of inhibitor giving 50% inhibition of substrate turnover, under the assay conditions. Specific assay procedures used are presented below.
as §2
Enzyme activity was determined using as substrate, S-2288 [D-isoleucyl-L-prolyl-L-arginine-p-nitroanilide dihydrochloride], purchased from Kabi Diagnostica. The substrate was made up in deionized water prior to use.
Both solutions were then incubated for 30 minutes at room temperature before use in the assay.
The assay was run by combining in appropriate wells 50 μL inhibitor in TBS or TBS alone and 100 μL of Factor VIIa:rTF complex or background control, incubating this mixture for 30 minutes at room temperature, adding 50 μL of 2 mM S-2288, incubating for an additional 30 to 60 minutes at room temperature, then reading the absorbance of the wells at 405 nm on a microtiter plate reader set with background substraction at 650 nm.

[5] = target: T4, human Factor Xa (Homo sapiens, UniProt P00742); assay: Factor Xa assay (Pefachrome Xa substrate); details: for Calculated % Selectivity Xa: [IC50 for Trypsin/IC50 for other enzyme]×100, lower = more trypsin selective
T4 construct: 50 μL 30 nM human Factor Xa
T4 sequence (P00742 235-488 limits assumed): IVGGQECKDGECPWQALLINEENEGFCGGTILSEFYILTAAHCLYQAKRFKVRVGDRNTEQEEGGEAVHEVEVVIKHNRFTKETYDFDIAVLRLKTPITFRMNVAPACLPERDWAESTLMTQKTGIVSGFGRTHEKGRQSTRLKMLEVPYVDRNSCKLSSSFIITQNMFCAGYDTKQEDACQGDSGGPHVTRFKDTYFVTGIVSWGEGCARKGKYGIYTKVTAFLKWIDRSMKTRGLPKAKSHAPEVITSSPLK
T4 sequence (P00742 41-179 partner limits assumed): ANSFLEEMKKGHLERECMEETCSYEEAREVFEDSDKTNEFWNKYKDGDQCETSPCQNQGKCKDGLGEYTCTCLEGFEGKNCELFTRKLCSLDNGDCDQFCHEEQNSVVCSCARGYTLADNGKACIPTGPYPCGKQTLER
Description: as §1, §2
Enzyme activity was determined using as substrate, Pefachrome Xa [N-methoxycarbonyl-D-cyclohexylalanyl-L-glycyl-L-arginine p-niroanilide acetate], purchased from Centerchem, Inc. The substrate was made up in deionized water prior to use.

[6] = target: T5, bovine thrombin (Bos taurus, UniProt P00735); assay: Thrombin assay (S-2238 substrate); details: for IC50: 30 min preincubation, room temperature, tested 0.025-25 μM, Inact. = no inhibition at highest concentration; for Calculated % Selectivity Thrombin: [IC50 for Trypsin/IC50 for other enzyme]×100, lower = more trypsin selective
T5 construct: 50 μL 20 nM bovine thrombin
Description: as §4, §2
Enzyme activity was determined using as substrate, S-2238 [D-phenylalanyl-L-pipecolyl-L-arginine-p-nitroanilide dihydrochloride], purchased from Kabi Diagnostica. The substrate was made up in deionized water prior to use.
The assay was run by combining in appropriate wells 50 μL TBS and 50 μL inhibitor in TBS or TBS alone and 50 μL 20 nM bovine thrombin (or TBS as background control), incubating this mixture for 30 minutes at room temperature, adding 50 μL 1 mM S-2238, incubating for an additional 30 minutes at room temperature, then reading the absorbance of the wells at 405 nm on a microtiter plate reader set with background substraction at 650 nm.

[7] = target: T6, Activated human Protein C (Homo sapiens, UniProt P04070); assay: Protein C assay (Pefachrome PC substrate); details: for Calculated % Selectivity Protein C: [IC50 for Trypsin/IC50 for other enzyme]×100, lower = more trypsin selective
T6 construct: from tissue
T6 sequence (P04070 212-461 limits assumed): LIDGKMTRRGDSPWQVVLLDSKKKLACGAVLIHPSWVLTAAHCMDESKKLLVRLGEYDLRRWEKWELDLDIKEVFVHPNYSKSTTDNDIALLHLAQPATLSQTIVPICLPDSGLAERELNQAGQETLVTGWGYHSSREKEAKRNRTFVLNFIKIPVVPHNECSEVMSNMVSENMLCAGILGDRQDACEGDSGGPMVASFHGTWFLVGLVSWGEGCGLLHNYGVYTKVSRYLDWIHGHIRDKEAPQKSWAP
T6 sequence (P04070 43-197 partner limits assumed): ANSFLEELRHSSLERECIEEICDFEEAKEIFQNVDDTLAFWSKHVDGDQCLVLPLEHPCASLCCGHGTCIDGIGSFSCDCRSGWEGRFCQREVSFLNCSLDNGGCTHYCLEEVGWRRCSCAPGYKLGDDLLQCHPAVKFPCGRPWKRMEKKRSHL
Description: as §1, §2
Enzyme activity was determined using as substrate, Pefachrome PC [δ-carbobenzoloxy-D-lysyl-L-prolyl-L-arginine-p-nitroanilide], purchased from Centerchem, Inc. The substrate was made up in deionized water prior to use. Protac used to activate Protein C was obtained from American Diagnostics.

[8] = target: recombinant tissue plasminogen activator (Homo sapiens, UniProt P00750); assay: Tissue plasminogen activator assay (S-2288 substrate); details: for IC50 tPA / IC50: 30 min preincubation, room temperature, tested 0.025-25 μM, Inact. = no inhibition at highest concentration; for Calculated % Selectivity tPA: [IC50 for Trypsin/IC50 for other enzyme]×100, lower = more trypsin selective
Chain of recombinant tissue plasminogen activator (P00750 36-562): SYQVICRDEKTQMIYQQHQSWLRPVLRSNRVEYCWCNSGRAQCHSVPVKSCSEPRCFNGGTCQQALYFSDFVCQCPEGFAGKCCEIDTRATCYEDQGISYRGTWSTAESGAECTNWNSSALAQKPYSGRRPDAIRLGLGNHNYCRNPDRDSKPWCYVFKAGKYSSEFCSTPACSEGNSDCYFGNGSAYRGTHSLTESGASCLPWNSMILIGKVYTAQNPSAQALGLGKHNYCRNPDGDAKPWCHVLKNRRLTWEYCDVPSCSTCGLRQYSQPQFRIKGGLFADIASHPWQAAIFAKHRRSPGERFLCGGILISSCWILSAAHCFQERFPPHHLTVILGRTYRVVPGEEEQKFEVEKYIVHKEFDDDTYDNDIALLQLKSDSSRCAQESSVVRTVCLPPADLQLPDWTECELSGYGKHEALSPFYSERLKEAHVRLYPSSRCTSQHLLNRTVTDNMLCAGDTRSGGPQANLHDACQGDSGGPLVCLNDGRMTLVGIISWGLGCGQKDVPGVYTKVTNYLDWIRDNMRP
Description: as §1, §2, §3

[9] = target: T7, human urokinase (Homo sapiens, UniProt P00749); assay: Urokinase assay (S-2444 substrate); details: for Calculated % Selectivity UK: [IC50 for Trypsin/IC50 for other enzyme]×100, lower = more trypsin selective
T7 construct: 50 μL of 270 U/mL human urokinase
Description: as §4, §2
Enzyme activity was determined using as substrate S-2444 [L-pyroglutamyl-L-glycyl-L-arginine-p-nitroanilide hydrochloride], purchased from Kabi Diagnostica. The substrate was made up in deionized water prior to use.
The assay was run by combining in appropriate wells 50 μL inhibitor in TBS or TBS alone and 50 μL of 270 U/mL human urokinase (or TBS as background control) and 50 μL TBS, incubating this mixture for 30 minutes at room temperature, adding 50 μL 1 mM S-2444, incubating for an additional 30 minutes at room temperature, then reading the absorbance of the wells at 405 nm on a microtiter plate reader set with background substraction at 650 nm.

[10] = target: T8, bovine trypsin (Bos taurus, UniProt P00760); assay: Trypsin assay, IC50 (S-2222 substrate); details: for IC50: 30 min preincubation, room temperature, tested 0.025-25 μM; for Calculated % Selectivity Trypsin: trypsin relative to itself (reference, 100 by definition)
T8 sequence (P00760 24-246): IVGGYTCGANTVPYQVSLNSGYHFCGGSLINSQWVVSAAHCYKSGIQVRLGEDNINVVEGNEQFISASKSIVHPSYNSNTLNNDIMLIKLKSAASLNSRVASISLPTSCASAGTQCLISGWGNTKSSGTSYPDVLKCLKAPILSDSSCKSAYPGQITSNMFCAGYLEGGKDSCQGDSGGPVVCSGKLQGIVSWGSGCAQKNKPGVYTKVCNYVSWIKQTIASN
Description: as §1, §2, §3

[11] = target: plasmin (Homo sapiens, UniProt P00747); assay: Plasmin assay (S-2251 substrate); parameters: 50 μL 25 nM human plasmin; details: for IC50: 30 min preincubation, room temperature, tested 0.025-25 μM, Inact. = no inhibition at highest concentration; for Calculated % Selectivity Plasmin: [IC50 for Trypsin/IC50 for other enzyme]×100, lower = more trypsin selective
Chain of plasmin (P00747 581-810 limits assumed): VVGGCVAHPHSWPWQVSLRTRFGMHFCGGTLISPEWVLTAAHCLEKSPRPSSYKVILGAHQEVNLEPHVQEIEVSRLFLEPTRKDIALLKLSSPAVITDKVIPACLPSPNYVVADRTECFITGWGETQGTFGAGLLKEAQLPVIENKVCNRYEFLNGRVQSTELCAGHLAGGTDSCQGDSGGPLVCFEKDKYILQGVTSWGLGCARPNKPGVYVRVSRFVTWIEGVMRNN
Chain of plasmin (P00747 97-580 partner limits assumed): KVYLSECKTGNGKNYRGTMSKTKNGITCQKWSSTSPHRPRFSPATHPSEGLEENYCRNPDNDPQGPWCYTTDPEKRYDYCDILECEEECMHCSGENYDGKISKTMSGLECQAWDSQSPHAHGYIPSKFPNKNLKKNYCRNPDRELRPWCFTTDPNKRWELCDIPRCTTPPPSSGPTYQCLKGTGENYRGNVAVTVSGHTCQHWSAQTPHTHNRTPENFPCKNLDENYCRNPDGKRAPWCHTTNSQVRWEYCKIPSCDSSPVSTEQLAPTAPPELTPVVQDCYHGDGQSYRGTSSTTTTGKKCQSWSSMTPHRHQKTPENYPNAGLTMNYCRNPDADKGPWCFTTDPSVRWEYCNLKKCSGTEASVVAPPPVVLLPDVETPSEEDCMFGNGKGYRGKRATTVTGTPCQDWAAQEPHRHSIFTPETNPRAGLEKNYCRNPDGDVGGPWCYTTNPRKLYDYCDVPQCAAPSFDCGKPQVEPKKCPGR
Description: as §1, §2, §3

[12] = 30 min preincubation, room temperature, tested 0.025-25 μM, Inact. = no inhibition at highest concentration

| Structure (SMILES) | Ki [1] [µM] | IC50 [2] [µM] | Calculated % Selectivity Kallikrein [2] [%] | IC50 [3] [µM] | Calculated % Selectivity XIa [3] [%] | IC50 [4, 12] [µM] | Calculated % Selectivity VIIa [4] [%] | Calculated % Selectivity Xa [5] [%] | IC50 [6] [µM] | Calculated % Selectivity Thrombin [6] [%] | Calculated % Selectivity Protein C [7] [%] | Calculated % Selectivity tPA [8] [%] | IC50 [9, 12] [µM] | Calculated % Selectivity UK [9] [%] | IC50 [10] [µM] | Calculated % Selectivity Trypsin [10] [%] | IC50 [11] [µM] | Calculated % Selectivity Plasmin [11] [%] | IC50 [5, 12] [µM] | IC50 [7, 12] [µM] | other results |
| --- | --- | --- | --- | --- | --- | --- | --- | --- | --- | --- | --- | --- | --- | --- | --- | --- | --- | --- | --- | --- | --- |
| CC(C)(C)OC(=O)N[C@@H](CCC(=O)O)C(=O)N1CCC[C@H]1C(=O)N[C@H](C=O)CCCNC(=N)N [Compound 8, N-t-butyloxycarbonyl-L-Glu-L-Pro-L-argininal] (Boc-Glu-Pro-Arg-aldehyde) | 0.0014 | 6 | 0.10 | 4 | 0.15 | > 25 | < 0.02 | 0 | 14 | 0.04 | 0 | 0 | 9 | 0.07 | 0.006 | 100 | 0.6 | 1 |  |  | IC50 Xa [5, 12]: Inact.; IC50 Protein C [7, 12]: Inact.; IC50 tPA [8]: Inact. |
| CC(C)COC(=O)NC(CC(=O)O)C(=O)N1CCCC1C(=O)NC(C=O)CCCN=C(N)N [Compound 10, N-isobutyloxycarbonyl-L-Asp-L-Pro-L-argininal] |  | 8 | < 0.3 | 13 | < 0.19 |  | 0 | < 1.3 | 9 | < 0.28 | < 0.1 | < 0.1 | > 25 | < 0.1 | < 0.025 | 100 | 1.2 | < 2 | 2 | > 25 | IC50 VIIA [4, 12]: Inact.; IC50 [8]: > 25 µM |
| N=C(N)NCCC[C@@H](C=O)NC(=O)[C@@H]1CCCN1C(=O)[C@H](CC(=O)O)NC(=O)OC12CC3CC(CC(C3)C1)C2 [Compound 11, N-adamantyloxycarbonyl-L-AsP-L-Pro-L-argininal] | 0.0002 | 2 | < 1.3 | 6 | < 0.42 | > 25 | < 0.1 | < 0.83 | 10 | < 0.25 | < 0.1 | < 0.1 | 19 | < 0.1 | < 0.025 | 100 | 1.1 | < 2 | 0.3 | > 25 | IC50 [8]: > 25 µM |
| CC(=O)N[C@@H](CC(C)C)C(=O)N[C@@H](CC(C)C)C(=O)N[C@H](C=O)CCCNC(=N)N [Leupeptin, reference compound] |  | 4 |  | 11 |  | > 25 |  |  | 20 |  |  |  |  |  | 1.7 |  | 8 |  | 25 | > 25 | IC50 tPA [8]: Inact.; IC50 UK [9, 12]: Inact. |
